Experiments:
Type in all cases: in vivo, human
males with ASD [1] = assay: Repetitive Behavior Questionnaire (RBQ), SAT-1 trial
Method: (§1) Two observational examinations were performed by a clinician at 3 time points: baseline (56±8 days; mean±SEM; before the infusion), 2-days post-infusion, and 6-weeks post-infusion. The two examiner-based metrics were the Autism Diagnostic Observation Schedule, 2nd edition (ADOS-2) with video and audio files recorded on 3 cameras, and the Expressive One Word Picture Vocabulary Testing (EOWPVT). Both of these observational metrics were administered by a trained and certified examiner using approved test materials. Three standardized questionnaires were completed by parents at 3 time points: baseline, 7-days post-infusion, and 6-weeks post-infusion. The three standardized questionnaires completed by parents were the 58-question Aberrant Behavior Checklist (ABC), the 75-item Autism Treatment Evaluation Checklist (ATEC), and the 33-item repetitive behavior questionnaire (RBQ). Parents were asked to complete these three instruments with reference to how their child behaved in the previous 7 days. […]
(§2) Behavioral and neurological effects of treatment were assessed primarily by the examiner-based ADOS-2 protocol scores and standardized vocabulary testing (Expressive One Word Picture Vocabulary Test, EOWPVT), with secondary evaluation via parent-based assessments (Aberrant Behavior Checklist (ABC) scores, Autism Treatment Evaluation Checklist (ATEC) scores, Clinical Global Impression of Improvement (CGI) scores, and Repetitive Behavior Questionnaire (RBQ) scores). […] Examiner-based outcomes (ADOS and EOWPVT) were assessed at 2-days and 6-weeks after the infusion. Parent-based outcomes (ABC, ATEC, CGI, and RBQ) were assessed at 7-days and 6-weeks after the infusion. […]
Each child was used as their own control to examine before and after treatment effects from Example 1 in a paired t-test design for the analysis of the ADOS, EOWPVT, ABC, ATEC, RBQ (FIGS. 4-11 show individual analyses), and blood and urine safety data (FIGS. 2 and 3 show individual analyses). […] Categorical data, such as the presence or absence of adverse events or historical symptoms was analyzed by Fisher's exact test. […]

males with ASD [2] = assay: Aberrant Behavior Checklist (ABC), parent questionnaire, SAT-1 trial; settings: ABC Stereotypy
Method: as §1, with “days. At the end of the six weeks, we included a 24-question Clinical Global Impression (CGI) questionnaire (FIG. 16). In addition, parents were asked to list the 3 top behaviors or symptoms that they observed to be most changed over the previous 6-weeks. To minimize the misinterpretation of natural day-to-day variations in symptoms, parents were asked to mark a symptom as changed in the 6-week CGI only if it had lasted for at least 1 week.” for “days.”
as §2
Each child was used as their own control to examine before and after treatment effects from Example 1 in a paired t-test design for the analysis of the ADOS, EOWPVT, ABC, ATEC, RBQ (FIGS. 4-11 show individual analyses), and blood and urine safety data (FIGS. 2 and 3 show individual analyses). […] Categorical data, such as the presence or absence of adverse events or historical symptoms was analyzed by Fisher's exact test. […] Cohen's d—calculated as the mean difference of the paired, within-subject scores before and after treatment, divided by the standard deviation of the differences—was used as an estimate of effect size.

[3] = Toxicity and safety monitoring, adverse events graded by CTCAE v4.03, SAT-1 trial
Method: Immediately before the infusion, height and weight were recorded, vital signs and capillary oxygen saturation (pulse oximetry) measured, physical and neurological examinations were conducted, and urine and blood for safety monitoring, pharmacology, and metabolomics was collected.
For the test dose, 50 mg of suramin hexasodium (Bayer Pharmaceuticals, Inc.) in 5 mL of saline (experimental arm, 5 patients), or 5 mL of saline only (control arm, 5 patients) were given by slow intravenous (IV) push over 3 minutes, followed by a 10 mL flush of saline. One hour after the test dose, vital signs were repeated and a single infusion of either suramin (20 mg/kg, minus the 50 mg test dose, in 50 mL, up to a maximum of 1 gram) or saline (50 mL IV) was given over 30 minutes, followed by a 10 mL flush of saline.
Suramin pharmacokinetics was assessed by serum isolation at the 4 time points immediately before and after the infusion. […] Unexpected and adverse events were recorded as they occurred and graded in severity according to the National Cancer Institute Common Terminology Criteria for Adverse Events v4.03 (CTCAE) scale. Additional pharmacovigilence monitoring included daily scripted phone calls in the first week, then 4 weekly calls until the exit examinations at 6 weeks.
Paired, non-parametric analysis was by Wilcoxon signed-rank sum test. Categorical data, such as the presence or absence of adverse events or historical symptoms was analyzed by Fisher's exact test. Two-way ANOVA (treatment×time), with Sidak post hoc correction, was used to analyze the 6-week summaries captured by the ADOS, CGI, and additional blood and urine safety analysis. Cohen's d—calculated as the mean difference of the paired, within-subject scores before and after treatment, divided by the standard deviation of the differences—was used as an estimate of effect size.

[4] = RBQ Total, 45 days after treatment

## Cc1ccc(C(=O)Nc2ccc(S(=O)(=O)O)c3cc(S(=O)(=O)O)cc(S(=O)(=O)O)c23)cc1NC(=O)c1cccc(NC(=O)Nc2cccc(C(=O)Nc3cc(C(=O)Nc4ccc(S(=O)(=O)O)c5cc(S(=O)(=O)O)cc(S(=O)(=O)O)c45)ccc3C)c2)c1 [Suramin, suramin]
Males with ASD [1]; 6-weeks
  Repetitive Behavior Questionnaire (RBQ) scores: did not capture a change
Males with ASD [1]; [4]
  Difference from baseline (mean ± sd): −3.2 ± 5.8
  d (Cohen's d): 0.55
Males with ASD [2]; 7 days after treatment
  Difference from baseline (mean ± sd): −3.6 ± 2.1
  d (Cohen's d): 1.7
Males with ASD [2]; 45 days after treatment
  Difference from baseline (mean ± sd): −4.0 ± 2.3
  d (Cohen's d): 1.7
[3]; Asymptomatic rash
  Adverse or Unanticipated Events, Suramin (N = 5): 5
  CTCAE Grade: 1
[3]; Emesis x 1
  Adverse or Unanticipated Events, Suramin (N = 5): 1^4
  CTCAE Grade: 1
[3]; Enuresis
  Adverse or Unanticipated Events, Suramin (N = 5): 1^9
  CTCAE Grade: 1
[3]; Headache
  Adverse or Unanticipated Events, Suramin (N = 5): 1
  CTCAE Grade: 1
[3]; Hyperactivity
  Adverse or Unanticipated Events, Suramin (N = 5): 2^6
  CTCAE Grade: 1
[3]; Hypoglycemia
  Adverse or Unanticipated Events, Suramin (N = 5): 1
  CTCAE Grade: 2
[3]; Leukocytosis
  Adverse or Unanticipated Events, Suramin (N = 5): 0
[3]; Peripheral neuropathy
  Adverse or Unanticipated Events, Suramin (N = 5): 0
[3]; Total
  Adverse or Unanticipated Events, Suramin (N = 5): 13
[3]; Total, excluding rash
  Adverse or Unanticipated Events, Suramin (N = 5): 8
[3]; Uncomplicated URI
  Adverse or Unanticipated Events, Suramin (N = 5): 2
  CTCAE Grade: 1
[3]; extensive monitoring, single 20 mg/kg IV
  serious toxicities (CTCAE grades 3-5): no serious toxicities
[3]; five children who received suramin
  extent of morbilliform rash: 1%-20%
[3]; in vivo
  time of rash peak after the infusion: 1 days
  time to spontaneous disappearance of rash: 2 to 4 days
[3]; suramin vs placebo (FIGS. 2 and 3)
  free cortisol, hemoglobin, white blood cell count (WBC), platelets, liver transaminases, creatinine, and urine protein: showed no differences

Reference: patent US20190358181A1, “METHODS FOR AUTISM SPECTRUM DISORDER PHARMACOTHERAPY” (priority 2017, published 2019)
